Series [1] concerns AAR pathway in splenocytes. The series can be described thus: In vivo activation of the AAR pathway in splenocytes of HF-injected mice. Details: species or system C57B/6 mice. Conditions: 2.5 μg HF i.p., 6 hours post injection. The procedure: FIG. 20A is a graph depicting splenocytes from control- and HF-treated mice. C57B/6 mice were injected i.p. with vehicle (DMSO) or 2.5 μg HF. Spleens were harvested 6 hours post injection, red blood cells were lysed and total splenocytes were counted. Data are presented as mean cell counts±SD from 2 mice per group.
FIG. 20C is a graph depicting eIF2α expression in control- and HF-treated mice. Splenocytes from mice injected with DMSO or HF as above were harvested 6 hours post injection. Red blood cells were lysed and immunoblotting was performed on whole cell extracts for phosphorylated or total eIF2α as indicated.
FIG. 20D is a graph depicting the results of quantitative real-time PCR (qPCR) experiments performed for AAR-associated gene expression (Asns, Gpt2, eIF4Ebp1) using cDNA generated from splenocytes of mice injected with DMSO or HF as above. Expression of AAR-associated genes were normalized to Hprt levels and data are presented as mean relative expression from duplicate samples±SD.
Studies were conducted to evaluate the effect of HF treatment in mice.

Another series concerns primary T cells. It counts as cell-based. On the procedure:
The non-specific cytoxicity of HF in both normal and transformed T-cells at high doses was evaluated. Anti-CD3/anti-CD28 activated primary T cells were harvested 6 days after activation and cultured in the presence of IL-2 with or without HF (100 nM). As a positive control, some T cells were cultured without IL-2 to induce apoptosis (FIG. 3A). Jurkat T cells, a transformed T cell leukemia line, were cultured in complete medium with or without HF (100 nM) as indicated (FIG. 3B). Both primary and Jurkat T cells were cultured for 30 hours and programmed cell death, i.e. apoptosis, was determined by Annexin V staining and propidium iodide (PI) uptake and cells were analyzed by flow cytometry. The percent of apoptotic T cells at each time point was plotted and was defined as Annexin V^+ PI^−. […] In further experiments, titrating amounts of HF were added to primary T cells and apoptosis was determine as above at the indicated time points. At 100 nM HF, but not 30 nM or lower, generalized T-cell apoptosis was observed (FIG. 3C).

A further series concerns TSK mouse. Conditions: 1 μg HF/mouse IP daily (McGaha et al.); cited from earlier work.
The test system of series [2] is Xenopus feeding stage tadpoles. The series is described as follows: Toxicity in Xenopus feeding stage tadpoles. The settings on record: 400 nM HF, 7 days. In kind it is in vivo. The procedure: At concentrations over 80 nM, HF has a variety of non-specific effects on both T-cells and fibroblasts. […] At the recommended tolerated dose for chronic treatment (0.5 mg/day), plasma levels of HF were ˜0.5 ng/ml (1 nM). (de.Jonge et al., Eur J Cancer, vol. 42(12):1768-74 (2006)).

In a further series the test system is RORγt. The series can be described thus: RORγt expression during Th17 differentiation (real-time PCR). Conditions: 10 nM HF. It counts as cell-based, mouse. On the procedure:
T cells were harvested at the indicated times following activation, RNA was isolated and quantitative real-time PCR was performed using RORγt-specific primers and taqman probe. RORγt expression was normalized to Gapdh levels, and the data are presented as fold changes relative to naïve T cells.
Quantitative real-time PCR: T cells were activated as described above, collected at the indicated times and pellets were flash-frozen in liquid nitrogen. Total RNA was obtained by RNeasy (Quiagen, Valencia, Calif.) column purification per manufacturers instructions. RORγt expression was determined after reverse transcription using the message sensor kit (Ambion, Austin, Tex.) per manufacturers instructions and taqman primers and probe as described elsewhere (I. Ivanov, et al., Cell 126, 1121, 2006). Sybrgreen quantitative real-time PCR was performed on T cell RNA samples following reverse transcription via SuperScript II first-strand cDNA synthesis kit (Invitrogen, Carlsbad, Calif.). All PCR data was collected on an iCycler thermal cycler (Biorad, Hercules, Calif.). Primer sequences used for detecting stress response genes are listed below.
Background: In qPCR the cycle at which signal appears reflects the starting amount.

The conditions of series [3]: cited from earlier work.

“And” between values parts separate entries of the source, which are not always exact repeats. Identical values can stand only once. Like-named read-outs stand apart in the source and are kept apart here. Bounds are passed on as bounds.

For the compound `O=C(CC1NCCCC1O)Cn1cnc2cc(Br)c(Cl)cc2c1=O` (racemic) [HF, 7-bromo-6-chloro-3-[3-(3-hydroxy-2-piperidinyl)-2-oxopropyl]-4(3H)-quinazolinone], the “eIF2α phosphorylation and AAR-associated gene expression in splenocytes, in words” value in series [1] is “rapidly activates eIF2α phosphorylation and AAR-associated gene expression”. Besides, in the series with primary T cells, the “concentration at which generalized T-cell apoptosis was not observed” value was at most 30 nM and the “concentration at which generalized T-cell apoptosis was observed” value is listed as 100 nM. Further, in the series with TSK mouse, the “skin thickness in TSK model, in words” value is on record as “reduced skin thickness of a TSK mouse to that of a normal mouse” and the “toxic effects in TSK model, in words” value is “no toxic effects”. For the same compound, in series [2], the “toxic effects in tadpoles, in words” value is “does not have detectable toxic effects”. For the same compound, in the series with RORγt, the “effect on upregulation of RORγt or RORγ during Th17 differentiation, in words” value is recorded as “did not interfere with the upregulation of RORγt or RORγ”. Moreover, the peak plasma concentration in series [3] (oral 3.5 mg/day) was 3 ng/ml and ~8 nM. In addition, in series [3] (oral (de Jonge et al.)), the “dose at which dose limiting toxicity occurred” value is on record as 3.5 mg/day. Besides, in series [3] (oral), the “dose limiting toxicity, in words” value was “nausea and vomiting”; the “recommended tolerated dose for chronic treatment” value was 0.5 mg/day. The “dose limiting toxicity, in words” value in series [3] (oral, listed as halofuginone) is listed as “nausea”.

Values taken from patent publication US20110212100A1, “METHODS FOR MODULATING DEVELOPMENT AND EXPANSION OF IL-17 EXPRESSING CELLS” (priority 2007, published 2011).
